The source of these data is PubChem BioAssay (NCI).

Test systems include CAKI-1 renal; NCI-H522 lung; SF-268 CNS; SK-MEL-5 melanoma; SN12C renal; UACC-62 melanoma; MALME-3M melanoma; RXF 393 renal.
What all share (assay): NCI-60 cell line screen, 48 h

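Each compound was tested at five concentrations against cells in 96-well plates for 48 hours. The concentration for 50% growth inhibition is given as GI50. TGI: concentration producing complete growth inhibition.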 Where only a bound is given, the exact number is not on record here.

For the compound `O=C(Oc1ccc(Cl)cc1)c1ccccc1Nc1ccnc(C(F)(F)F)c1`, the GI50 in the test with CAKI-1 renal was 2.32 µM; with NCI-H522 lung it was 4.22 µM; with SF-268 CNS, 4.32 µM; with SK-MEL-5 melanoma it was 16.8 µM; with SN12C renal, 2.95 µM; in the test with UACC-62 melanoma it was 2.61 µM. The TGI turned out to be 4.67 µM in the test on CAKI-1 renal; 52.2 µM with NCI-H522 lung; 17.4 µM with SF-268 CNS; 36.2 µM with SK-MEL-5 melanoma; 8.72 µM with SN12C renal; 8.44 µM in the test with UACC-62 melanoma.

Turning to `O=C(Nc1ccc(Oc2ccc(Nc3nc4ccccc4s3)cc2)cc1)Nc1ccc(Cl)c(C(F)(F)F)c1`, the GI50 in the test with CAKI-1 renal is 2.05 µM; in the test on MALME-3M melanoma it was 1.8 µM; with NCI-H522 lung, 1.51 µM; with RXF 393 renal, 1.8 µM; with SF-268 CNS, 1.94 µM; in the test on SK-MEL-5 melanoma, 1.45 µM. In addition, the figures for the GI50 in the test with SN12C renal and in the test on UACC-62 melanoma were 1.42 µM and 1.23 µM, respectively. Moreover, the TGI came out at 7.98 µM in the test on CAKI-1 renal; 3.79 µM in the test on MALME-3M melanoma; 3.39 µM with NCI-H522 lung; 4 µM in the test on RXF 393 renal; 4.74 µM with SF-268 CNS; 2.79 µM in the test on SK-MEL-5 melanoma. For the same compound, the TGI worked out at 3.03 µM with SN12C renal and 2.57 µM in the test on UACC-62 melanoma.

With `COc1cccc(C(=O)NC(c2ccc(C)cc2)c2cc(Cl)c3cccnc3c2O)c1` (centres undefined), the GI50 in the test with CAKI-1 renal is 0.465 µM; in the test on MALME-3M melanoma, 1.42 µM; in the test with NCI-H522 lung, 0.291 µM; with RXF 393 renal, 0.736 µM; in the test on SF-268 CNS, 0.619 µM; in the test with SK-MEL-5 melanoma, 0.318 µM. Further, the values for the GI50 in the test with SN12C renal and in the test with UACC-62 melanoma were 0.661 µM and 0.357 µM, respectively. For the same compound, the TGI with CAKI-1 renal stood at 15.8 µM; in the test with MALME-3M melanoma it was 15.6 µM; in the test with NCI-H522 lung it was 1.65 µM; in the test with RXF 393 renal it was 3.44 µM; in the test with SF-268 CNS it was 12.4 µM; with SK-MEL-5 melanoma, 1.32 µM. Further, the figures for the TGI in the test on SN12C renal and in the test on UACC-62 melanoma were 13.2 µM and 3.13 µM, respectively.

On to `Oc1[nH]c2ccccc2c1N=Nc1nc(-c2ccc(Br)cc2)cs1`, for which the TGI in the test with CAKI-1 renal was 39.9 µM; with NCI-H522 lung it was over 100 µM; in the test with RXF 393 renal, over 100 µM; with SF-268 CNS, 46.8 µM; in the test on SK-MEL-5 melanoma, 33.4 µM; in the test with SN12C renal, 83.2 µM. Also, in the test with UACC-62 melanoma, the TGI is 63.2 µM.

Take `CC(C)[C@@H]1C=C2CC[C@H]3[C@](C)(CN)CCC[C@]3(C)[C@H]2CC1`: the GI50 with CAKI-1 renal was 1.85 µM; in the test on MALME-3M melanoma, 3.9 µM; in the test on NCI-H522 lung, 1.91 µM; with RXF 393 renal, 1.77 µM; in the test on SF-268 CNS it was 7.27 µM; in the test with SK-MEL-5 melanoma, 13.1 µM. Further, the GI50 with SN12C renal is 3.42 µM; with UACC-62 melanoma, 16 µM. In addition, the TGI is 4.66 µM in the test on CAKI-1 renal; 19.3 µM with MALME-3M melanoma; 4.16 µM with NCI-H522 lung; 3.56 µM in the test with RXF 393 renal; 20.7 µM in the test with SF-268 CNS; 25.8 µM with SK-MEL-5 melanoma. Moreover, the TGI with SN12C renal turned out to be 14 µM; in the test with UACC-62 melanoma, 30.5 µM.

`CCCCCCCCCCCCC(O)c1ccc(C#CCCCCCCCCCO)o1` (centres undefined): the GI50 is 18.6 µM in the test on CAKI-1 renal; 21 µM with NCI-H522 lung; 17.9 µM in the test on RXF 393 renal; 23.2 µM in the test on SF-268 CNS; 25.5 µM with SK-MEL-5 melanoma; 18.7 µM in the test with SN12C renal. For the same compound, the GI50 in the test on UACC-62 melanoma was 19.7 µM. For the same compound, the TGI with CAKI-1 renal was 33.1 µM; in the test on NCI-H522 lung, 45.5 µM; with RXF 393 renal it was 35.3 µM; in the test on SF-268 CNS it was 49.4 µM; in the test on SK-MEL-5 melanoma, 47.2 µM; in the test on SN12C renal, 33.2 µM. The same compound had a TGI in the test with UACC-62 melanoma of 40.3 µM.

For `COc1ccc(-c2cn[nH]c2-c2cc(OC)c(OC)c(OC)c2)cc1`, the GI50 with CAKI-1 renal was 0.0187 µM; in the test with NCI-H522 lung it was 0.0101 µM; in the test with RXF 393 renal it was 0.0269 µM; with SF-268 CNS, 0.0795 µM; in the test with SK-MEL-5 melanoma it was 0.0243 µM; in the test with SN12C renal, 0.193 µM. Besides, in the test on UACC-62 melanoma, the GI50 was 0.0339 µM. In addition, the TGI in the test on CAKI-1 renal came out at 18.2 µM; with NCI-H522 lung it was 0.0385 µM; in the test with RXF 393 renal, 25.1 µM; in the test with SF-268 CNS, 31.5 µM; with SK-MEL-5 melanoma it was 0.226 µM; in the test on SN12C renal it was 47.3 µM. The compound also returned a TGI in the test on UACC-62 melanoma of 19.5 µM.

Regarding `COc1cc(C2CC(C)(O)Oc3cc4c(cc32)OCO4)cc(OC)c1OC` (centres undefined), the TGI with CAKI-1 renal was over 100 µM; in the test on NCI-H522 lung it was 0.661 µM; with RXF 393 renal, 0.403 µM; in the test on SF-268 CNS, over 100 µM; with SK-MEL-5 melanoma, 0.494 µM; in the test on SN12C renal it was over 100 µM. Moreover, the TGI in the test with UACC-62 melanoma is over 100 µM.

As to `CCC(=C/[C@H](C)C/C=C/C(C)=C/[C@@H](C)C(=O)[C@@H](C)[C@H](O)[C@@H](C)CC)/C=C/[C@H]1OC(=O)C=C[C@@H]1C`, the GI50 with CAKI-1 renal, with MALME-3M melanoma, in the test on NCI-H522 lung, in the test on SF-268 CNS, in the test on SK-MEL-5 melanoma and in the test on SN12C renal was under 0.01 µM each time. The GI50 with UACC-62 melanoma was under 0.01 µM. The TGI with CAKI-1 renal was 0.327 µM; with MALME-3M melanoma, 0.175 µM; in the test with SF-268 CNS, 1.72 µM; in the test on SK-MEL-5 melanoma it was 0.0342 µM; with SN12C renal, 1.27 µM; in the test on UACC-62 melanoma, 0.276 µM.

Consider `CCOC(=O)C1=C(C)N(c2ccc(F)cc2F)[C@]2(C#N)C(O)=C(Cl)C(Cl)=C(O)[C@]12C#N`, for which the GI50 with CAKI-1 renal, with MALME-3M melanoma, with NCI-H522 lung, in the test with RXF 393 renal, in the test with SF-268 CNS and in the test on SK-MEL-5 melanoma was over 100 µM throughout. Also, the GI50 in the test with SN12C renal is over 100 µM. The TGI with CAKI-1 renal, with MALME-3M melanoma, with NCI-H522 lung, with RXF 393 renal, with SF-268 CNS and in the test on SK-MEL-5 melanoma was over 100 µM in each case. The same compound showed a TGI with SN12C renal of over 100 µM.
